According to publication PMC9927415, “Tyrosine Kinase Inhibitors Display Potent Activity against Cryptosporidium parvum” (Microbiology Spectrum, 2022):
Like-named read-outs stand apart in the source and are kept apart here.

Experiments:
Experiment in all cases: KINOMEscan competitive binding
BIKE = target: T1, BIKE (Homo sapiens, UniProt Q9NSY1)
T1 construct: purchased DiscoverX (KINOMEscan)
Source text: (§1) The kinases were expressed as fusions to T7 bacteriophage. This is a sensitive, competitive binding assay where test compounds were used to displace immobilized ATP-site binding probe ligands from kinases of interest. The amount of kinase that remained bound to the immobilized probe ligands on the solid support was quantified. Percentage inhibition data were was plotted on kinome trees using the web-based tool KinMap (http://www.kinhub.org/kinmap) ([60]).

CSNK2A1 = target: T2, CSNK2A1 (Homo sapiens, UniProt P68400)
T2 construct: purchased DiscoverX (KINOMEscan)
T2 sequence (P68400 whole entry): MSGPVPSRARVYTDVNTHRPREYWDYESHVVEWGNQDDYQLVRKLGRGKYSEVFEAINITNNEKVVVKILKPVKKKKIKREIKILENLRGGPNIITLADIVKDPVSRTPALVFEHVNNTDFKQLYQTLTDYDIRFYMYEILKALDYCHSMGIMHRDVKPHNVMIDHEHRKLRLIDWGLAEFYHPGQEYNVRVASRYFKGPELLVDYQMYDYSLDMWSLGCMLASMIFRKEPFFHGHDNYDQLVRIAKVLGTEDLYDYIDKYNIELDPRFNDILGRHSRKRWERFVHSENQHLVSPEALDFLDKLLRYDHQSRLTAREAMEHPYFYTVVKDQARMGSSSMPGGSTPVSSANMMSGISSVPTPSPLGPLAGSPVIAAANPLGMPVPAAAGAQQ
Source text: as §1

EGFR = target: T3, EGFR (Homo sapiens, UniProt P00533); settings: 10 µM, n=1; kinase EGFR; read-out: Percent inhibition EGFR
T3 construct: purchased DiscoverX (KINOMEscan)
Source text: as §1

CSNK1E = target: T4, CSNK1E (Homo sapiens, UniProt P49674); settings: 10 µM, n=1; kinase CSNK1E; read-out: Percent inhibition CSNK1E
T4 construct: purchased DiscoverX (KINOMEscan)
T4 sequence (P49674 whole entry): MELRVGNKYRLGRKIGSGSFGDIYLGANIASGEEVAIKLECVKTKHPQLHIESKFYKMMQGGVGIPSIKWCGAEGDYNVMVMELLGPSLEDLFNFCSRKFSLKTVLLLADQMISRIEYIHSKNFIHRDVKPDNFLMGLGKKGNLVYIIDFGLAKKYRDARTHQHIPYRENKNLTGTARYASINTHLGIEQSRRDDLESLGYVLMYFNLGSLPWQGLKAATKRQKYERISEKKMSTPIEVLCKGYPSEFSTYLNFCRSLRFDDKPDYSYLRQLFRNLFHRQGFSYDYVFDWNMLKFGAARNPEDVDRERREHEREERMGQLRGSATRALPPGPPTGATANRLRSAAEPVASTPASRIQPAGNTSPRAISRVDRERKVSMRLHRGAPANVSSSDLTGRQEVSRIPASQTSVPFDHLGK
Source text: as §1

JAK1(JH2) = target: T5, JAK1(JH2) (Homo sapiens, UniProt P23458); settings: 10 µM, n=1; kinase JAK1(Kin.Dom.1); read-out: Percent inhibition JAK1(Kin.Dom.1)
T5 construct: JAK1(JH2); purchased DiscoverX (KINOMEscan)
T5 sequence (P23458 583-855 limits assumed): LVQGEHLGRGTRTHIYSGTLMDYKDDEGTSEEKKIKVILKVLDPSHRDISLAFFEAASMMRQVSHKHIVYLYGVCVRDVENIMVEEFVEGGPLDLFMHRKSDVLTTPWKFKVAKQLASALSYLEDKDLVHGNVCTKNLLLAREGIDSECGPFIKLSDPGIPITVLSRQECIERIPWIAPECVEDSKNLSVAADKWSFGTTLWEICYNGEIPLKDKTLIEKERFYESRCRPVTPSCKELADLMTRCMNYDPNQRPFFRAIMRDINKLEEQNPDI
Source text: as §1

CSNK1G1 = target: T6, CSNK1G1 (Homo sapiens, UniProt Q9HCP0); settings: 10 µM, n=1; kinase CSNK1G1; read-out: Percent inhibition CSNK1G1
T6 construct: purchased DiscoverX (KINOMEscan)
Source text: as §1

AAK1 = target: T7, AAK1 (Homo sapiens, UniProt Q2M2I8)
T7 construct: purchased DiscoverX (KINOMEscan)
T7 sequence (Q2M2I8 whole entry): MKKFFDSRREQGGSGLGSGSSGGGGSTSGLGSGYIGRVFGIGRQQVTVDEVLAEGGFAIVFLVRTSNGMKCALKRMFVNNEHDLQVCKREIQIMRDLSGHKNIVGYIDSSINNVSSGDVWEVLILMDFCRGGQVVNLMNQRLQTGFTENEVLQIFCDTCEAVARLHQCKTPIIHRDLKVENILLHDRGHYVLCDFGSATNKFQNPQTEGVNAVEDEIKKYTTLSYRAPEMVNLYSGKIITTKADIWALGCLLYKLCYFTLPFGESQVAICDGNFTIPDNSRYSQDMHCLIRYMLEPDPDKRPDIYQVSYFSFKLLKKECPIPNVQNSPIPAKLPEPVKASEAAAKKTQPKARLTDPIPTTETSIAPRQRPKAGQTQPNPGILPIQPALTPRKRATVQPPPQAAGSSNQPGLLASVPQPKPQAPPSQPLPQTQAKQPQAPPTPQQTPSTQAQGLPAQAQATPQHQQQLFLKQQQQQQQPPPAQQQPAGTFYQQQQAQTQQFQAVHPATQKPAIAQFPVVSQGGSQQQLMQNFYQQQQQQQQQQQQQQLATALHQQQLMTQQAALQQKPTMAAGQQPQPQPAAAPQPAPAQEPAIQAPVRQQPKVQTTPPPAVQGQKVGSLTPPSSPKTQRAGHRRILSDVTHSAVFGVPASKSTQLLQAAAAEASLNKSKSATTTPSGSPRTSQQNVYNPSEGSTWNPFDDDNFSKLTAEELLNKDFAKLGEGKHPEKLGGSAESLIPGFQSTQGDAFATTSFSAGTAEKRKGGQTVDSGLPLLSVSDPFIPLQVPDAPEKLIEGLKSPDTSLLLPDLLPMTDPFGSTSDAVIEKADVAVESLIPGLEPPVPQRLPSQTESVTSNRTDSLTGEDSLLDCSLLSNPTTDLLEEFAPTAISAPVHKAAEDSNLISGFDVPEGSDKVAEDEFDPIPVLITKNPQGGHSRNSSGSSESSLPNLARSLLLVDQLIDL
Source text: as §1

LYN = target: T8, LYN (Homo sapiens, UniProt P07948); settings: 10 µM, n=1; kinase LYN; read-out: Percent inhibition LYN
T8 construct: purchased DiscoverX (KINOMEscan)
T8 sequence (P07948 whole entry): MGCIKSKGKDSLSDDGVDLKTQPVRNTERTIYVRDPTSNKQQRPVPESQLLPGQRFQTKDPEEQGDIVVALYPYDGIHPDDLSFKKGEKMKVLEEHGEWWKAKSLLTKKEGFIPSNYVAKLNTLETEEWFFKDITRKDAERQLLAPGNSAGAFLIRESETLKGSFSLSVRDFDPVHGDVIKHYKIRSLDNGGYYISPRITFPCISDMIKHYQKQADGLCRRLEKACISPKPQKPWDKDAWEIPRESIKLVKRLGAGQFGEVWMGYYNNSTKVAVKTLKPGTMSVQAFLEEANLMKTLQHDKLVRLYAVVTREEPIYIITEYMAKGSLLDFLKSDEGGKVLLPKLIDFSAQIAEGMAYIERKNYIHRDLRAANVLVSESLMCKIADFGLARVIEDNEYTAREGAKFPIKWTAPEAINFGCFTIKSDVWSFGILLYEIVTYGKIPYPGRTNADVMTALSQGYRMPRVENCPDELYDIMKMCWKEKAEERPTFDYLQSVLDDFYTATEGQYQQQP
Source text: as §1

PLK1 = target: T9, PLK1 (Homo sapiens, UniProt P53350); settings: n=1, read-out: Percent inhibition, PLK1
T9 construct: purchased DiscoverX (KINOMEscan)
Source text: as §1

CDK5 = target: T10, CDK5 (Homo sapiens, UniProt Q00535); settings: 10 µM, n=1; kinase CDK5; read-out: Percent inhibition CDK5
T10 construct: purchased DiscoverX (KINOMEscan)
Source text: as §1

KIT = target: T11, KIT (Homo sapiens, UniProt P10721); settings: 10 µM, n=1; kinase KIT; read-out: Percent inhibition KIT
T11 construct: purchased DiscoverX (KINOMEscan)
Source text: as §1

KDR (VEGFR2) = target: T12, KDR (VEGFR2) (Homo sapiens, UniProt P35968); settings: KINOMEscan, 10 µM, n=1; read-out: Percent inhibition, VEGFR2
T12 construct: purchased DiscoverX (KINOMEscan)
T12 sequence (P35968 20-1356): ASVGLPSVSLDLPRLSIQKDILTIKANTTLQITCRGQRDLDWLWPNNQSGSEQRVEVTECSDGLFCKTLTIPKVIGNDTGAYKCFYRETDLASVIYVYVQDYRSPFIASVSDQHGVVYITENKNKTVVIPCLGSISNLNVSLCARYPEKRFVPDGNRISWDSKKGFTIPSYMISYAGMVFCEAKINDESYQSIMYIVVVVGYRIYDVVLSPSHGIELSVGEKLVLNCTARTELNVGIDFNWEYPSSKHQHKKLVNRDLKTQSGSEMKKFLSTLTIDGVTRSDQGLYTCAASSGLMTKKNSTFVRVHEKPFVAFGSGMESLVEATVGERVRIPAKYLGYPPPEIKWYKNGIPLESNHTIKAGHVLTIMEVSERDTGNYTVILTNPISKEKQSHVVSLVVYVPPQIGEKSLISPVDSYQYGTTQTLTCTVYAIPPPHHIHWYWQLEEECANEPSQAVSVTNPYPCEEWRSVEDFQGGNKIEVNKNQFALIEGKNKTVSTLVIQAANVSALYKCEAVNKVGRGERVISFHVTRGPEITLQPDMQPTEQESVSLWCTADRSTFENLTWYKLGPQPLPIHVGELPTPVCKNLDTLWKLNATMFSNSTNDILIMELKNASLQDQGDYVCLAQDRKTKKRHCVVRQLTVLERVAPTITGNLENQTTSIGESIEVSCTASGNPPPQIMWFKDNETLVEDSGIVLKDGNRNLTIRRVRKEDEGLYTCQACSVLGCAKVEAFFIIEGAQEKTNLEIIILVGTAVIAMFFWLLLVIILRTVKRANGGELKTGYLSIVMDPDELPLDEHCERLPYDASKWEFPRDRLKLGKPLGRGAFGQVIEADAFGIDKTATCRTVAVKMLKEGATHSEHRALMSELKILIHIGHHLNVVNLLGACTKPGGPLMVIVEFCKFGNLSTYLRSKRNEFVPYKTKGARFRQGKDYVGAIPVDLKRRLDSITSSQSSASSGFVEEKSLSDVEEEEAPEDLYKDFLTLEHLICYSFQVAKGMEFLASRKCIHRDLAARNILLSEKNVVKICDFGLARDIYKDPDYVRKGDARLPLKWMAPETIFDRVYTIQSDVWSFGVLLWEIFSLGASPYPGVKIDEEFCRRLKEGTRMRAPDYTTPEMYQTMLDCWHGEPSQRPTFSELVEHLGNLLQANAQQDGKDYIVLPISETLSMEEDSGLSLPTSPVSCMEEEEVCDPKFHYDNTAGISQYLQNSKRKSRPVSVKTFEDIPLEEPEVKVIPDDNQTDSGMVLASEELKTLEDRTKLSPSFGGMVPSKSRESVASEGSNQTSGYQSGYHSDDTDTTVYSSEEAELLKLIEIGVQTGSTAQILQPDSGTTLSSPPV
Source text: as §1

MERTK = target: T13, MERTK (Homo sapiens, UniProt Q12866)
T13 construct: purchased DiscoverX (KINOMEscan)
T13 sequence (Q12866 21-999): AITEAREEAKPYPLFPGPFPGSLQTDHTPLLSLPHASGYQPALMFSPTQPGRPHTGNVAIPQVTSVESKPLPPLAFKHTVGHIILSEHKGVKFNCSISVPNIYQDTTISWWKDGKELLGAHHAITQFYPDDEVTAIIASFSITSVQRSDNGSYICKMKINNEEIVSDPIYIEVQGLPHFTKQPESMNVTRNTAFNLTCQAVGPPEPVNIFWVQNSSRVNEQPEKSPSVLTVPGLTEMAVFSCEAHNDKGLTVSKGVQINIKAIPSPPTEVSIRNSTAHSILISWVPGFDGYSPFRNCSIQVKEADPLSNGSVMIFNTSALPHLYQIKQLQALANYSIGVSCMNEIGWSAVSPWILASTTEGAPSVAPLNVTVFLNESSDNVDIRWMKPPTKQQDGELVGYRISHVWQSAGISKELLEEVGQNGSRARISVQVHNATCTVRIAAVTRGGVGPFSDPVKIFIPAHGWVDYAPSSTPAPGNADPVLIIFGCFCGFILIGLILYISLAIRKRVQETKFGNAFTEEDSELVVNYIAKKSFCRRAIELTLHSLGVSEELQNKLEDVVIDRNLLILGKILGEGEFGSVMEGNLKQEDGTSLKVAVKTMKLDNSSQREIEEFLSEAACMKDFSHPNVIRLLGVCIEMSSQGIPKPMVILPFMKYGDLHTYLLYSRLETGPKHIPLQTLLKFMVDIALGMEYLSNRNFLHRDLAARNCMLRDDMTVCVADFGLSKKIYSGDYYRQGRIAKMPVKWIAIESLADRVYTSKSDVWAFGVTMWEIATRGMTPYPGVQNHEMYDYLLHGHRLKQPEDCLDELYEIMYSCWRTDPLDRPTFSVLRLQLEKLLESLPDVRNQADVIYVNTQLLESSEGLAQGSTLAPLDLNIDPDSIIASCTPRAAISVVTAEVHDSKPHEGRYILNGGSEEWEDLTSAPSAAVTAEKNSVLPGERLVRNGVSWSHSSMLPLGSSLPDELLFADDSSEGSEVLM
Source text: as §1

CLK2 = target: T14, CLK2 (Homo sapiens, UniProt P49760); settings: 10 µM, n=1; kinase CLK2; read-out: Percent inhibition CLK2
T14 construct: purchased DiscoverX (KINOMEscan)
Source text: as §1

CLK1 = target: T15, CLK1 (Homo sapiens, UniProt P49759); settings: 10 µM, n=1; kinase CLK1; read-out: Percent inhibition CLK1
T15 construct: purchased DiscoverX (KINOMEscan)
Source text: as §1

PKN2 = target: T16, PKN2 (Homo sapiens, UniProt Q16513); settings: n=1, read-out: Percent inhibition, PKN2
T16 construct: purchased DiscoverX (KINOMEscan)

RIPK2 = target: T17, RIPK2 (Homo sapiens, UniProt O43353); settings: n=1, read-out: Percent inhibition, RIPK2
T17 construct: purchased DiscoverX (KINOMEscan)

Measured: inhibition at 10 µM

T1 sequence (Q9NSY1 whole entry): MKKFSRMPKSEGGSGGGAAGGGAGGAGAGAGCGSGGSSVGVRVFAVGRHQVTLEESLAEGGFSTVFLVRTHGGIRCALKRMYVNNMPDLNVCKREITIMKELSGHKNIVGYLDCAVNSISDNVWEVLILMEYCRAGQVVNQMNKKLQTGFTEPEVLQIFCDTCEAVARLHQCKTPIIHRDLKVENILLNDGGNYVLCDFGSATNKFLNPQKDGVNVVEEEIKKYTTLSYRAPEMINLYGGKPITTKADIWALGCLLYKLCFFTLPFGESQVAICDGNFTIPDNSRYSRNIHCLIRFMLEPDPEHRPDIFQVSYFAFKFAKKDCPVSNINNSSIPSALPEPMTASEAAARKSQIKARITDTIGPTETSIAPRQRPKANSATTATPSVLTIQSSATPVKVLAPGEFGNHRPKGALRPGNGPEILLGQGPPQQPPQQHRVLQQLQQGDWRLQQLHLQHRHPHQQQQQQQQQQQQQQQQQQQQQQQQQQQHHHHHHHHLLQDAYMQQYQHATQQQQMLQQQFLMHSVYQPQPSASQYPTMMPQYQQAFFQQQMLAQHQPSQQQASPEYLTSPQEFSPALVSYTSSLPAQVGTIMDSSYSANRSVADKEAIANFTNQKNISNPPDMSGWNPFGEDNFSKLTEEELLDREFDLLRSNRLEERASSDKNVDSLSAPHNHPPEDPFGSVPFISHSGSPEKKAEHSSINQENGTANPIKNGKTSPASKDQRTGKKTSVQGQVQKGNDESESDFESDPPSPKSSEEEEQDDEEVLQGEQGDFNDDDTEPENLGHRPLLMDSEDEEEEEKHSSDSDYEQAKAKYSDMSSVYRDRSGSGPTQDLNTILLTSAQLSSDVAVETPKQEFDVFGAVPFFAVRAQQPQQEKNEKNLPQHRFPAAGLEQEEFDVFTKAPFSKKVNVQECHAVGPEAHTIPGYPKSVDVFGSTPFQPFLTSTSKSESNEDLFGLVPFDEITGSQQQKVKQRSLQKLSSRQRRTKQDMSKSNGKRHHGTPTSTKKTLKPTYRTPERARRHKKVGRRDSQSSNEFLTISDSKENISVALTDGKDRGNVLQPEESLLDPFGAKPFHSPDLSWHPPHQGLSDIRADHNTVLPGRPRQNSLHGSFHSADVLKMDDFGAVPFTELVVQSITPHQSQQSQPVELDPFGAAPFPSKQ

c1ccc(COc2cccc(-c3ccnc4[nH]ccc34)c2)cc1 [Compound 9]
94.1%: MERTK; 10 µM, n=1, kinase MERTK, read-out: Percent inhibition MERTK
≥ 99%: CSNK2A1; 10 μM, n = 1, read-out: percent inhibition CSNK2A1
95.1%: AAK1; 10 µM, n=1, kinase AAK1, read-out: Percent inhibition AAK1
≥ 90%: BIKE; 10 μM, n = 1, read-out: percent inhibition BIKE | AAK1; 10 μM, n = 1, read-out: percent inhibition AAK1 | MERTK; 10 μM, n = 1, read-out: percent inhibition MERTK
94.9%: BIKE; 10 µM, n=1, kinase BIKE, read-out: Percent inhibition BIKE
0%: EGFR | CSNK1E | JAK1(JH2) | CSNK1G1 | LYN | PLK1 | CDK5 | KIT | KDR (VEGFR2) | CLK2 | CLK1 | PKN2 | RIPK2
100%: CSNK2A1; 10 µM, n=1, kinase CSNK2A1, read-out: Percent inhibition CSNK2A1
